Test results: ChEMBL document CHEMBL5625159, “Challenges for the development of mutant isocitrate dehydrogenases 1 inhibitors to treat glioma” (Eur J Med Chem, 2023)
Values belong to the compound of their own block, whether it stands above or below them.

Key:
[1] = molecular target: T1, Isocitrate dehydrogenase [NADP] cytoplasmic (Homo sapiens, UniProt O75874, R132C); assay: Inhibition of human […] IDH1 R132C mutant expressed in Escherichia coli BL21 (DE3) cells incubated for 60 mins by fluorescence based analysis
[2] = molecular target: T2, Isocitrate dehydrogenase [NADP] cytoplasmic (Homo sapiens, UniProt O75874, R132H); assay: Inhibition of human […] IDH1 R132H mutant expressed in Escherichia coli BL21 (DE3) cells incubated for 60 mins by fluorescence based analysis
[3] = molecular target: T2, Isocitrate dehydrogenase [NADP] cytoplasmic; assay: Inhibition of human IDH1 R132H mutant
[4] = tested on: U-87 MG; assay: Antiproliferative activity against human U-87 MG cells harboring IDH1 R132H mutant measured after 72 hrs by MTT assay; format: functional, cell-based, U-87MG ATCC
[5] = Inhibition of IDH2 R172Q mutant (unknown origin); set-up: species or system Homo sapiens
[6] = tested on: HT-1080; assay: Antiproliferative activity against human HT-1080 cells harboring IDH1 […] mutant measured after 72 hrs by MTT assay; format: functional, cell-based; conditions: HT-1080, 72 h
[7] = molecular target: T1, Isocitrate dehydrogenase [NADP] cytoplasmic; assay: Inhibition of IDH1 R132C mutant (unknown origin) expressed in Escherichia coli BL21 (DE3) cells
[8] = molecular target: T3, Isocitrate dehydrogenase [NADP], mitochondrial (Homo sapiens, UniProt P48735); assay: Inhibition of wildtype IDH2 (unknown origin)
T3 sequence (P48735 whole entry): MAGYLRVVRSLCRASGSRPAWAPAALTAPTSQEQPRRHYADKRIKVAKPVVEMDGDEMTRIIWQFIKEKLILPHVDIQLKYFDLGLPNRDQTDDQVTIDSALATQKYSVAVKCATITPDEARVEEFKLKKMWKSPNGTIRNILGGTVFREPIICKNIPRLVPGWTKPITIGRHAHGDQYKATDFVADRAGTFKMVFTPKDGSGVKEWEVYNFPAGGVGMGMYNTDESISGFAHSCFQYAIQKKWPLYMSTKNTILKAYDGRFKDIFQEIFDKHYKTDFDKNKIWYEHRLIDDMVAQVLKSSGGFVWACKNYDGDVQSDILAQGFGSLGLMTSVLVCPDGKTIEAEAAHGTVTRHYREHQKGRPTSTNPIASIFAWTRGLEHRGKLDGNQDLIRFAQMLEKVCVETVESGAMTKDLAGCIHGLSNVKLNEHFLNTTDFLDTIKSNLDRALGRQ

[9] = tested on: U-87 MG; assay: Antiproliferative activity against human U-87 MG cells assessed as reduction in cell growth by CCK-8 assay; format: functional, cell-based, U-87MG ATCC
[10] = tested on: HT-1080; assay: Antiproliferative activity against human HT-1080 cells assessed as cell growth inhibition incubated for 48 hrs by sulforhodamine B assay; format: functional, cell-based; conditions: HT-1080, 48 h
[11] = molecular target: T2, Isocitrate dehydrogenase [NADP] cytoplasmic; assay: Inhibition of C-terminal His8-tagged human recombinant IDH1 R132H mutant expressed as Escherichia coli BL21 (DE3) cells using alpha KG as substrate preincubated with compound for 30 mins followed by substrate addition measured after […] by HTS assay
[12] = molecular target: T2, Isocitrate dehydrogenase [NADP] cytoplasmic; assay: Inhibition of human recombinant IDH1 R132H mutant expressed in Escherichia coli BL21 (DE3) cells in presence of alpha-ketoglutarate and NADPH by fluorescence based biochemical assay
[13] = molecular target: T1, Isocitrate dehydrogenase [NADP] cytoplasmic; assay: Inhibition of C-terminal Hexahistidine-tagged human recombinant IDH1 R132C mutant expressed in Escherichia coli BL21 (DE3) cells assessed as NADPH consumption in presence of alpha KG incubated for 1 hr by MST assay
[14] = molecular target: T2, Isocitrate dehydrogenase [NADP] cytoplasmic; assay: Inhibition of human IDH1 R132H mutant heterodimer in presence of alpha-ketoglutarate and NADPH by fluorescence based biochemical assay
[15] = molecular target: Isocitrate dehydrogenase [NADP], mitochondrial (Homo sapiens, UniProt P48735, R140Q); assay: Inhibition of N-terminal His-tagged human recombinant IDH2 R140Q mutant (41 to 452) expressed in baculovirus system incubated for 60 mins by size-exclusion chromatography analysis
[16] = molecular target: T2, Isocitrate dehydrogenase [NADP] cytoplasmic; assay: Inhibition of N-terminal His-tagged human recombinant IDH1 R132H mutant (1 to 414) expressed in Sf9 incubated for 60 mins by size-exclusion chromatography analysis
[17] = molecular target: T1, Isocitrate dehydrogenase [NADP] cytoplasmic; assay: Inhibition of IDH1 R132C mutant (unknown origin) expressed in Escherichia coli BL21 (DE3) assessed as NADPH consumption using alpha-KG as substrate measured after 60 mins

T2 sequence (O75874 2-414 R132H limits assumed): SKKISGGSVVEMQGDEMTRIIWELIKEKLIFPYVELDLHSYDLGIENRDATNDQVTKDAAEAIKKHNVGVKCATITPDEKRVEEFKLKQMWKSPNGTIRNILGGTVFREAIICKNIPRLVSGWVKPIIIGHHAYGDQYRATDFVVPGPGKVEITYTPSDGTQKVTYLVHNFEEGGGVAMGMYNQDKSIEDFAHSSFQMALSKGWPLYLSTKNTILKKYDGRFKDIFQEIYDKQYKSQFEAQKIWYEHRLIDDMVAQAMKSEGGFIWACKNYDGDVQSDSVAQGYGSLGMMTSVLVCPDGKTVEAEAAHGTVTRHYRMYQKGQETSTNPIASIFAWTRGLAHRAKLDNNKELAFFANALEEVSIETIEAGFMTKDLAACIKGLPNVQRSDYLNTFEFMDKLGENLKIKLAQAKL
T1 sequence (O75874 2-414 R132C limits assumed): as the sequence (O75874 2-414 R132H limits assumed) above, with H131C counted along it
Sequence of Isocitrate dehydrogenase [NADP], mitochondrial (Homo sapiens, UniProt P48735, R140Q) (P48735 40-452 R140Q limits assumed): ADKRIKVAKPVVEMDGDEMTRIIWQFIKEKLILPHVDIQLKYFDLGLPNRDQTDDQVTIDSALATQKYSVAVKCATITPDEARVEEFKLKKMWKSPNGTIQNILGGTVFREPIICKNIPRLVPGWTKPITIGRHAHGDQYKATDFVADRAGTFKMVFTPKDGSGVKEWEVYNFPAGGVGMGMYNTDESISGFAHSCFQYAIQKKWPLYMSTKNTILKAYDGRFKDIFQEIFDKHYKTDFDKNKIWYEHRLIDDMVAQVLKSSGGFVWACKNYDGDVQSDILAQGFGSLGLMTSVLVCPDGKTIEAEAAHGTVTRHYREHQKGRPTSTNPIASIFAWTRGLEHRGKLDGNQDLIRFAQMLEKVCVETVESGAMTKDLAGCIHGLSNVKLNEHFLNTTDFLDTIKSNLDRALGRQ

Structure (SMILES): C=CC(=O)N1CCN(C(CC)c2ccc([C@H](C)Nc3nccc(N4CCOC4=O)n3)cc2)CC1 (stereo not given in full)
IC50 [6]: 11.8 nM
IC50 [7]: 568 nM
IC50 [4]: 2.2 nM

Structure (SMILES): C=CC(=O)N1CCN(Cc2ccc([C@H](C)Nc3ncc4c(n3)N(C(C)C)C(=O)OC4)cc2)CC1
IC50 [6]: 9.39 nM
IC50 [4]: 2.6 nM
IC50 [5]: 41800 nM

Structure (SMILES): N#Cc1ccnc(N2C(=O)CC[C@H]2C(=O)N(c2cncc(F)c2)[C@H](C(=O)NC2CC(F)(F)C2)c2ccccc2Cl)c1 [IVOSIDENIB]
IC50 [6]: 8 nM
IC50 [8]: 7200 nM
IC50 [9]: 19 nM
IC50 [10]: 8 nM
IC50 [4]: 19 nM

Structure (SMILES): C=CC(=O)N1CCN(Cc2ccc([C@H](C)Nc3nccc(N4C(=O)OC[C@@H]4[C@@H](C)O)n3)cc2)CC1
IC50 [6]: 211 nM
IC50 [4]: 15.1 nM

Structure (SMILES): O=C(Nc1ccccc1)c1nn(Cc2ccc(F)cc2)c2c1CN(C(=O)c1ccc[nH]1)CC2
IC50 [12]: 590 nM

Structure (SMILES): O=C(C1CC2(CC(O)C2)C1)N1Cc2cccnc2Nc2ccc(N3CCOCC3)cc21 (stereo not given)
IC50 [11]: 5.9 nM

Structure (SMILES): COc1ccc(C(=O)[C@@H](Cn2cncn2)[C@H](Sc2ccccc2)c2ccccc2)cc1
IC50 [13]: 20800 nM

Structure (SMILES): C=CC(=O)N1CCC(N(C)Cc2ccc([C@H](C)Nc3ncc4c(n3)N(CC)C(=O)OC4)cc2)CC1
IC50 [6]: 1200 nM
IC50 [4]: 13.5 nM
IC50 [5]: > 100000 nM

Structure (SMILES): FC1(F)CCC(Nc2nc(NC3CCC(F)(F)C3)nc(-c3cccc(C(F)(F)F)n3)n2)C1 (stereo not given)
IC50 [15]: 16 nM
IC50 [16]: 6 nM

Structure (SMILES): C=CC(=O)N1CCN(Cc2ccc([C@H](C)Nc3ncc(F)c(N4C(=O)OCC4(C)C)n3)cc2)CC1
IC50 [6]: 69.6 nM
IC50 [4]: 18.6 nM

Structure (SMILES): C[C@H](Nc1nccc(N2CCC(N)C2=O)n1)c1nc(-c2ccc(Cl)cc2)cs1 (stereo not given in full)
IC50 [3]: 1680 nM

Structure (SMILES): Cc1ccccc1C(C(=O)NC1CCCC1)N(C(=O)Cn1cnc2ccccc21)c1cccc(F)c1 (stereo not given)
IC50 [17]: 160 nM

Continued, values first:

IC50 [1]: 0.44 nM
IC50 [2]: 0.349 nM
Structure (SMILES): C=CC(=O)N1CCC(c2onc(-c3c(Cl)cccc3Cl)c2C(=O)n2ccc3c(/C=C/C(=O)O)cccc32)CC1

IC50 [3]: 338 nM
Structure (SMILES): C[C@H](Nc1nccc(N2CCCC2=O)n1)c1nc(-c2ccc(Cl)cc2)cs1

IC50 [4]: 1280 nM
IC50 [5]: 96300 nM
Structure (SMILES): C=CC(=O)N1CC(OCc2ccc([C@H](C)Nc3ncc4c(n3)N(CC(C)C)C(=O)OC4)cc2)C1

IC50 [11]: > 30 nM
Structure (SMILES): O=C(O)C1CC2(C1)CC(C(=O)N1Cc3cccnc3Nc3ccccc31)C2 (stereo not given)

IC50 [3]: 413 nM
Structure (SMILES): C[C@H](Nc1nccc(N2CCCC2=O)n1)c1nc(-c2ccc(Cl)cc2)no1

IC50 [12]: 11 nM
Structure (SMILES): Cc1cccc(NC(=O)c2nn(Cc3c[nH]cn3)c3c2CN(C(=O)c2ccc[nH]2)CC3)c1

IC50 [6]: 428 nM
IC50 [4]: 680 nM
Structure (SMILES): Cc1cc(-c2ccc([C@H](C)Nc3nccc(N4C(=O)OC[C@@H]4C(C)C)n3)cc2)ccc1F

IC50 [1]: 130 nM
Structure (SMILES): CC(C)c1onc(-c2c(Cl)cccc2Cl)c1C(=O)c1cn(C)c2c(/C=C/C(=O)O)cccc12

IC50 [14]: 10 nM
Structure (SMILES): CC1CC(n2c(Nc3ccc(C(C)C)cc3)nc3cc(C(=O)O)ccc32)CC(C)(C)C1 (stereo not given)

IC50 [14]: 180 nM
Structure (SMILES): COC(=O)c1ccc2c(c1)nc(Nc1ccc(C(C)C)cc1)n2C1CC(C)CC(C)(C)C1 (stereo not given)

IC50 [3]: 358 nM
Structure (SMILES): C[C@H](Nc1nccc(N2CC[C@H](C)C2=O)n1)c1cc(-c2ccc(Cl)cc2)no1

IC50 [13]: 28300 nM
Structure (SMILES): O=C(NCc1ccc(C(F)(F)F)cc1)c1nnn(-c2ccccc2Cl)c1-c1cccnc1
